Values joined by “and” are separate entries in the source; they are usually repeats but may differ in a detail not shown here. Identical values can stand only once.

What all share (type): physicochemical
A short description of data set [1]: Control lenses: DMPC loading of Example 3 lenses (enzymatic assay). To be noted: control lenses of Example 3, no release test, n=5. From the text: Lenses are demolded and extracted with an organic solvent (e.g., isopropanol, 1-propanol, Dowanol, methyl ethyl ketone (MEK), or the like) and then dipped in a Dowanol PM (or alternatively MEK or 1-propanol) solution of polyacrylic acid (0.1% by weight, pH ˜2.0). The lenses are then rinsed for 60 seconds in water and then dipped in a Dowanol (or alternatively MEK or 1-propanol) solution of 1,2-dimyristoyl-sn-glycero-3-phosphocholine (DMPC, 1%) for about 60 to about 100 seconds. The lenses are then rinsed in water for 120 seconds and packaged in PBS. Lenses are then autoclaved for 30 min at 121° C. The second test is designed to try to maximize the amount of DM PC in ATF by leaving the lens in ATF for the entire release test. A single lens is placed in 1 mL ATF and incubated at 35° C. for 8 hrs. Every 30 min, the sample is vortexed and then returned to the incubator. At the conclusion of 8 hrs, the lens is removed from the ATF and the ATF is submitted for analysis. All analysis is done using an enzymatic assay method. A control set of lenses is submitted to confirm loading of the lenses with DMPC. This control sample set (n=5) show an average loading of 200 μg DMPC per lens.

Data set [2] in a line: Release of radio-labeled DMPC from lens into ATF over 24 hours (scintillation counter). The conditions noted are these: 1 mL ATF, radio labeled DMPC (C14). As to the method:
(§1) Lenses are prepared according to the procedures described in Example 3, except that DMPC used in this example is a radio labeled DMPC (C14). The radio labeled DMPC is supplied by New England Nuclear (Waltham, Mass.). Lenses are loaded with radio-labeled DMPC by dipping the lenses into a solution of the radio-labeled DMPC in 1-propanol. Loaded lenses are then subjected to release testing using artificial tear fluid (ATF) as the release media. Components listed in Table 2 are dissolved in a phosphate buffered saline solution to provide a physiologically acceptable pH and osmolality.
Release tests are conducted by placing a single lens in 1 mL of ATF and then incubating the sample for 24 hours. At specified time points of 0, 2, 4, 10, and 24 hours, small samples of release media are pulled and analyzed for DM PC content using a scintillation counter (C14 emits a weak beta particle).

Data set [3] can be described thus: Release of DMPC from pooled Example 6 lenses into ATF, 24 hours, HPLC. To be noted: pooled lenses (35 lenses in 3.5 mL ATF and 50 lenses in 5 mL ATF), 37° C. As to the method: The release profile of contact lenses with comfort agents (DMPC and L-PEG) are determined as follows. Lenses are placed in release media (artificial tear fluid (ATF) as described in Example 4) for release testing. Lenses are pooled (35 lenses in 3.5 mL ATF and 50 lenses in 5 mL ATF) and then gently agitated at 37° C. for 24 hours. At the conclusion of the 24-hour release study, the lenses are removed from the ATF. The remaining ATF is then transferred to centrifuge tubes and dried overnight under vacuum in a centrifugal evaporator.
The dried residue from the ATF is then resuspended in 1-propanol (1 mL 1-propanol for each original 5 mL ATF) using sonication to assist in resuspension. The resulting solution is analyzed for presence of DMPC using HPLC.

Data set [4] is described as follows: Total content of radio-labeled DMPC in lenses (extraction, scintillation counting). The conditions noted are these: radio labeled DMPC (C14) loaded from 1-propanol. As to the method:
as §1
The DMPC content of the lenses is also measured using one of two techniques: • (1) Lenses that had previously been subjected to release testing are fully extracted and the eluate is then analyzed for DMPC content. This amount of DMPC is numerically added to the DMPC already quantified in the release media. Thus, all DMPC is accounted for, cradle-to-grave. • (2) Other lenses, not subject to release testing, are also extracted to determine initial DMPC content (total loading of DM PC in lenses).

Data set [5] in a line: First release test: lens in artificial tear fluid (ATF) refreshed every 30 min, DMPC left in lens. The conditions noted are these: first test: 500 μL ATF replaced every 30 min, 35° C., 8 hrs, n=5. The method, then: Lenses (as prepared in Example 3) are subjected to one of two release tests in artificial tear fluid (ATF) prepared without any phospholipids and having a composition shown in Table 1. The first test is designed to maximize release of DMPC from the lens by refreshing the ATF frequently. A single lens is placed in 500 μL of ATF and incubated at 35° C. for 8 hrs. Every 30 min, the sample is vortexed, the ATF is withdrawn, a fresh 500 μL aliquot of ATF is added to the lens, the sample is again vortexed, and the sample is returned to the incubator. At the conclusion of 8 hrs, the lenses are removed from ATF, placed in 1 mL clean PBS, and submitted for analysis of DMPC content. The second test is designed to try to maximize the amount of DM PC in ATF by leaving the lens in ATF for the entire release test. A single lens is placed in 1 mL ATF and incubated at 35° C. for 8 hrs. Every 30 min, the sample is vortexed and then returned to the incubator. At the conclusion of 8 hrs, the lens is removed from the ATF and the ATF is submitted for analysis. All analysis is done using an enzymatic assay method.

Data set [6] can be described thus: Second release test: lens left in ATF for 8 hrs, DMPC in ATF. To be noted: second test: 1 mL ATF, 35° C., 3 pooled ATF samples, just below dynamic range of the assay. As to the method: Lenses (as prepared in Example 3) are subjected to one of two release tests in artificial tear fluid (ATF) prepared without any phospholipids and having a composition shown in Table 1. The second test is designed to try to maximize the amount of DM PC in ATF by leaving the lens in ATF for the entire release test. A single lens is placed in 1 mL ATF and incubated at 35° C. for 8 hrs. Every 30 min, the sample is vortexed and then returned to the incubator. At the conclusion of 8 hrs, the lens is removed from the ATF and the ATF is submitted for analysis. All analysis is done using an enzymatic assay method. Three ATF samples are pooled to increase the DMPC signal. […] The value for the 3 pooled samples is just below the dynamic range of the assay, making confidence in the quantified DMPC levels difficult yet still providing evidence of DMPC release from the lenses.

Data set [7] in a line: Comfort agent content of Example 6 lenses (exhaustive isopropanol extraction). To be noted: comfort agent added to lens formulation, after autoclave. As to the method:
A lens formulation is prepared as detailed in Example 3 where 1,2-dimyristoyl-sn-glycero-3-phosphocholine (DMPC) is added to the formulation at a concentration of 0.75% by weight and where the formulation solvent, 1-propanol, is reduced to 22.65% by weight. Lens curing is as described in Example 3. The lenses are demolded and then extracted in methyl ethyl ketone followed by a rinse in DI water for 56 seconds. The lenses are then dipped in a solution of polyacrylic acid (0.36% wt/vol in 1-propanol, pH-2). The lenses are then rinsed in water for 120 seconds and packaged in phosphate buffered saline. Lenses are then autoclaved for 30 minutes at 121° C. The content of comfort agents, DMPC and L-PEG, are determined as follows. Lenses are exhaustively extracted in isopropanol and the extract is tested for DMPC and N-(carbonyl-methoxypolyethylene glycol-2000)-1,2-disteaoyl-sn-glycero-3-phosphoethanolamine, sodium salt (L-PEG-2000) content. Lenses contain on average 30 μg DMPC and 10 μg L-PEG-2000 per lens.

With `CCCCCCCCCCCCCC(=O)OC[C@H](COP(=O)([O-])OCC[N+](C)(C)C)OC(=O)CCCCCCCCCCCCC` [DMPC, 1,2-dimyristoyl-sn-glycero-3-phosphocholine], the “average loading of DMPC per lens” value in data set [1] was 200 μg DMPC per lens. For the same molecule, in data set [2] (0-24 hours), the DMPC release order result is “first order”. For the same molecule, the “average cumulative DMPC release from the lens” value in data set [2] (24-hour test period, eight samples) came to 1.3 µg. The “DMPC in ATF after release” value in data set [3] was 0.48 μg per mL ATF and 0.69 μg per mL ATF. The “total DMPC content of the lenses” value in data set [4] was 32.1±2.7 micrograms of DMPC per lens. Moreover, the “average DMPC content of lens after release” value in data set [5] was determined as 177 μg DMPC per lens. The “DMPC in the ATF equivalent per lens” value in data set [6] is on record as 6 μg DM PC per lens. Also, the “average content per lens” value in data set [7] is given as 30 μg per lens.

As to “N-(carbonyl-methoxypolyethylene glycol-2000)-1,2-distearoyl-sn-glycero-3-phosphoethanolamine sodium salt [L-PEG-2000]”, the “average content per lens” value in data set [7] was 10 μg per lens.

These data come from patent US10913224B2, “Ophthalmic devices for delivery of hydrophobic comfort agents” (Novartis AG, priority 2008, dated 2021).
